Laboratory results reported in patent publication US12303845B2, “Method for crystallization of active pharmaceutical ingredients” (Nanoform Finland Oyj, priority 2023, dated 2025).

Tests used:
Type in all cases: physicochemical
[1] = Stability tests of solid material (SEM, XRD, HPLC); conditions: materials prepared according to the disclosure; up to T30; crystallinity confirmed by XRD
Method: Solid material was weighted in separate vials (approx. 150 mg of material in each) and transferred to stability chambers. Three conditions were applied: ambient conditions (material in closed vial at RT), 25° C./65% RH and 40° C./75% RH. Material was analyzed at T0 as freshly prepared, T7 ([…]), T14 ([…]) and T30 (30 d) after the initiation of stability studies. SEM, XRD and dissolution/permeability studies were used to evaluate the crystallinity, particle size/morphology and performance of the material.

[2] = Crystallization of amorphous nanosized API in aqueous polymer solution, polymorph/crystallinity by XRD; design: key to Polymorph: bulk = same as the API before conversion to amorphous nanoparticles
Method: XRPD measurements were carried out using the Malvern PANalytical Empyrean X-ray diffractometer equipped with a Cu Kα (1.54 Å) source, MultiCore optics and a solid-state PIXcel3D detector. By using Kapton tape the samples were attached onto aluminum or polycrystalline silicon sample holders. Dried slurries were measured without further sample preparation under Kapton tape and suspensions were filtered, dried, and filters were attached with double sided tape. The samples were measured in the reflection geometry in a spinning measurement stage. The measurement range was 5-40 (°2θ). The step size and time per step values were varied depending on the counts per second obtained.
Determination of crystallization of API nanoparticles was evaluated via kinetic study of suspension. Accordingly, XRD measurement was done for suspension in different time points.
Amorphous API nanoparticles (budesonide, ezetimibe, ceritinib, and apalutamide) were added as dry powders to aqueous polymer solutions. The mixtures were either • (i) mixed with a magnetic stirrer and ultrasonicated until API was completely surrounded by water (wetted). The stirring was continued for 16-24 h at ambient temperature or • (ii) blended with a metal spatula and allowed to stay at room temperature for 18-24 h.
The suspensions formed were analyzed after 18-24 h. SEM and XRD samples were prepared as described above.

[3] = SEM of crystallized suspensions and dried products (crystal size grade, particle size); design: key: 5 = nanocrystals; 1 = large crystals
Method: SEM images were captured using the Zeiss Sigma 300 VP SEM instruments. Samples were dispersed into water and filtered with 0.1 μm filter. Filters were dried, transferred to SEM sample holders, and coated with a 5 nm thick layer of platinum. Amorphous API nanoparticles (budesonide, ezetimibe, ceritinib, and apalutamide) were added as dry powders to aqueous polymer solutions. The mixtures were either • (i) mixed with a magnetic stirrer and ultrasonicated until API was completely surrounded by water (wetted). The stirring was continued for 16-24 h at ambient temperature or • (ii) blended with a metal spatula and allowed to stay at room temperature for 18-24 h. The suspensions formed were analyzed after 18-24 h. SEM and XRD samples were prepared as described above. Suspension comprising nanosized APIs prepared as shown above were dried in a vacuum desiccator overnight. The solid materials were grounded to produce powders. The powders were analyzed on XRD and SEM. The powders comprising nanosized APIs were used in the stability, permeability, and dissolution tests as described above.

[4] = Dissolution studies (Pion Rainbow, FaSSIF / SGF-FaSSIF); conditions: composition of the disclosure vs bulk ezetimibe; powders resuspended in aq. 1% PVPVA; FaSSIF and SGF-FaSSIF
Method: The dissolution properties were measured with a Pion Rainbow R2D instrument (Pion Inc UK Ltd, Forest Row, UK). The suspensions were prepared at concentration of 5 mg/mL in 1% PVPVA suspension vehicle loaded at 40 μg/mL (ezetimibe) or 30 μg/ml (apalutamide). Fasted simulated intestinal fluid (FaSSIF) media pH 6.5 was used for dissolution studies of Ezetimibe. Dissolution studies for Apalutamide was done in biphasic mode starting in Simulated gastric media (SGF) (0.025 M HCl pH 1.6) for 15 min. Thereafter, the content of the SGF was converted to FaSSIF medium pH 6.5 by addition of 10 mL of FaSSIF concentrate media. The temperature was set to 37° C. and stirring rate to 150 rpm. API concentrations were continuously monitored with a fiber optical UV-Vis probes path length. UV-Vis spectra were collected in 30-sec intervals using the Pion Rainbow Dynamic with either 10 mm tips for Ezetimibe or 5 mm tips for Apalutamide. The API concentration was calculated based on a standard curve using 2nd derivative data transformation (stock solution 5 mg/mL in ethanol of respective API) at a range of 293-320 nm wavelength for both Ezetimibe and Apalutamide).

[5] = HPMC 1 wt.-%, SLS 0.2 wt.-%, mAPI 25 mg/g
[6] = HPMC 1 wt.-%, no SLS, mAPI 25 mg/g
[7] = HPMC 2.5 wt.-%, SLS 0.2 wt.-%, mAPI 25 mg/g
[8] = HPMC 2.5 wt.-%, no SLS, mAPI 25 mg/g
[9] = HPMC 5 wt.-%, SLS 0.2 wt.-%, mAPI 25 mg/g
[10] = HPMC 5 wt.-%, no SLS, mAPI 25 mg/g
[11] = PVP K30 1 wt.-%, no SLS, mAPI 25 mg/g
[12] = PVP K30 2.5 wt.-%, no SLS, mAPI 25 mg/g
[13] = PVP K30 5 wt.-%, no SLS, mAPI 25 mg/g
[14] = PVPVA 1 wt.-%, SLS 0.2 wt.-%, mAPI 25 mg/g
[15] = PVPVA 1 wt.-%, no SLS, mAPI 25 mg/g polymer solution
[16] = PVPVA 2.5 wt.-%, SLS 0.2 wt.-%, mAPI 25 mg/g
[17] = PVPVA 2.5 wt.-%, no SLS, mAPI 25 mg/g
[18] = PVPVA 5 wt.-%, SLS 0.2 wt.-%, mAPI 25 mg/g
[19] = PVPVA 5 wt.-%, no SLS, mAPI 25 mg/g
[20] = PVPVA 15 wt.-%, no SLS, mAPI 150 mg/g
[21] = PVPVA 15 wt.-%, no SLS, mAPI 300 mg/g
[22] = PVPVA 20 wt.-%, no SLS, mAPI 100 mg/g
[23] = PVPVA 20 wt.-%, no SLS, mAPI 200 mg/g
[24] = PVPVA 20 wt.-%, no SLS, mAPI 400 mg/g
[25] = PVPVA 25 wt.-%, no SLS, mAPI 125 mg/g
[26] = PVPVA 25 wt.-%, no SLS, mAPI 250 mg/g
[27] = Poloxamer 407 1 wt.-%, no SLS, mAPI 25 mg/g
[28] = Poloxamer 407 2.5 wt.-%, no SLS, mAPI 25 mg/g
[29] = Poloxamer 407 5 wt.-%, no SLS, mAPI 25 mg/g

Stability of nanocrystalline material over the stability study [1]: stable over the whole stability study | Polymorph [2, 5]: bulk | Polymorph [2, 6]: hydrate | Polymorph [2, 7]: amorphous | Polymorph [2, 8]: hydrate | Polymorph [2, 9]: amorphous | Polymorph [2, 10]: hydrate | Polymorph [2, 11]: bulk | Polymorph [2, 12]: bulk | Polymorph [2, 13]: bulk | Polymorph [2, 14]: bulk | Polymorph [2, 15]: bulk | Polymorph [2, 16]: bulk | Polymorph [2, 17]: bulk | Polymorph [2, 18]: hydrate | Polymorph [2, 19]: bulk | Polymorph [2, 20]: hydrate | Polymorph [2, 21]: hydrate | Polymorph [2, 22]: hydrate | Polymorph [2, 23]: hydrate | Polymorph [2, 24]: hydrate | Polymorph [2, 25]: hydrate | Polymorph [2, 26]: hydrate | Polymorph [2, 27]: bulk | Polymorph [2, 28]: bulk | Polymorph [2, 29]: bulk | time from contacting until crystal formation is observed in XRD diffractograms ([2]; suspension in 20 wt.-% aq. PVPVA, API:polymer ratio 1:1): > 9 h | Grade (SEM, visual inspection) [3, 5]: 2 | Grade (SEM, visual inspection) [3, 6]: 2 | Grade (SEM, visual inspection) [3, 7]: 2 | Grade (SEM, visual inspection) [3, 8]: 2 | Grade (SEM, visual inspection) [3, 9]: 2 | Grade (SEM, visual inspection) [3, 10]: 2 | Grade (SEM, visual inspection) [3, 11]: 3 | Grade (SEM, visual inspection) [3, 12]: 3 | Grade (SEM, visual inspection) [3, 13]: 3 | Grade (SEM, visual inspection) [3, 14]: 2 | Grade (SEM, visual inspection) [3, 15]: 3 | Grade (SEM, visual inspection) [3, 16]: 4 | Grade (SEM, visual inspection) [3, 17]: 2 | Grade (SEM, visual inspection) [3, 18]: 5 | Grade (SEM, visual inspection) [3, 19]: 2 | Grade (SEM, visual inspection) [3, 20]: 5 | Grade (SEM, visual inspection) [3, 21]: 5 | Grade (SEM, visual inspection) [3, 22]: 5 | Grade (SEM, visual inspection) [3, 23]: 5 | Grade (SEM, visual inspection) [3, 24]: 5 | Grade (SEM, visual inspection) [3, 25]: 5 | Grade (SEM, visual inspection) [3, 26]: 5 | Grade (SEM, visual inspection) [3, 27]: 1 | Grade (SEM, visual inspection) [3, 28]: 1 | Grade (SEM, visual inspection) [3, 29]: 1 | dissolution versus bulk material [4]: dissolves significantly faster
SMILES: O=C1[C@H](CC[C@H](O)c2ccc(F)cc2)[C@@H](c2ccc(O)cc2)N1c1ccc(F)cc1 [Eze, ezetimibe]
